The target in this assay is MCH receptor (Homo sapiens, UniProt Q99705). The assay can be described thus: FLIPR/FDSS6000 functional assay: intracellular Ca2+ changes evoked by MCH. It counts as cell-based. The settings on record: class by percent of control at 10^−7 M or by IC50; antagonist activity, 50 nM of MCH; read-out: class. The essentials:
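Cells expressing a constitutively active, non-endogenous MCH receptor were loaded with 4 μM Fluo-4-AM for 1 hr at 37 °C. They were then preincubated 30 min with compound before MCH addition, using 50 nM MCH for antagonist testing. [Ca2+]i transients were monitored at Ex 488/Em 530 nm for 290 s by FLIPR or FDSS.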

SMILES strings stand for the structures. Counter-ions that a name gives are not always drawn.

With `Cc1nc(N[C@H]2CC[C@@H](NC(=O)c3ccc(Cl)cc3)CC2)cc(N(C)C)n1` [Example 25, 4-Chloro-N-(cis-4-{[6-(dimethylamino)-2-methylpyrimidin-4-yl]amino}cyclohexyl)-benzamide hydrochloride], the IC50 fell in the range of 50 to 200 nM.

These data come from patent US20090036448A1, “PYRIMIDINE DERIVATIVES AND METHODS OF TREATMENT RELATED TO THE USE THEREOF” (TAISHO PHARMECUTICAL CO., LTD., priority 2004, published 2009).
